The subject of test [1] is MCF-7 cells. In words: Apoptosis of MCF-7 cells. Format: cell-based. The settings on record: 48 hours.
For test [2], the system named is ASPC1. Put plainly: MTT growth inhibition, pancreatic cancer cell line ASPC1. In kind it is cell-based. The settings on record: Homo sapiens, 96-hours treatment, average of three independent experiments. The protocol: (§1) Eight of these analogs 6d, 6h, 6n, 6g, 7b, 7d, 8g, and 8h were tested for their cytotoxicity in seven pancreatic cell lines ASPC1, Panc1, Panc203, Panc430, Pane 1005, MiaPaca2, and HS766T using MTT assay. Cells were trypsinized, seeded at 5×10^3 cells/well in 96-well plate and allowed to grow for 24 hours before the treatment with exponential increasing concentrations of drugs in the presence of 10% FBS. After a 96-hours period of treatment, 20 μl of MTT solution (5 mg/ml in PBS) were added to each well, and the plates were then incubated for 3 hours at 37° C. Medium was then replaced with 100 μl of DMSO per well. Plates were shaken and the optical density was measured at 570 nm using a multiwell plate reader (Bio-Rad, Model 550, Bio-Rad Inc., Hercules, Calif.). Each experiment was performed in triplicate for each drug concentration and was carried out independently at least 3 times. The IC50 value was defined as the concentration needed for a 50% reduction in the absorbance calculated based on the survival curves. Response to drug treatment was assessed by standardizing treatment groups to untreated controls. Compounds activity was compared with compound 1.
(§2) Biology. Table 2 (Growth Inhibition of Pancreatic Cancer Cell Lines by BPU and BPTU Analogues (IC50)^a)compares the cytotoxicity of a series of new derivatives against a panel of seven pancreatic cancer cell lines, as determined by MTT assay. See, Mosmann, T., J. Immunol. Methods 65:55-63 (1983).

For test [3], the system named is Panc1. Put plainly: MTT growth inhibition, pancreatic cancer cell line Panc1. In kind it is cell-based. The conditions noted are these: for IC50: Homo sapiens, PANC-1, MTT, 96-hours treatment, average of three independent experiments. As to the method:
as §1, §2

In test [4] the test system is Panc203. In words: MTT growth inhibition, pancreatic cancer cell line Panc203. Format: cell-based. The settings on record: for IC50: Homo sapiens, Panc203, MTT, 96-hours treatment, average of three independent experiments. As to the method:
as §1, §2

The subject of test [5] is Panc430. In words: MTT growth inhibition, pancreatic cancer cell line Panc430. In kind it is cell-based. The settings on record: for IC50: Pancreatic cancer cell, MTT, 96-hours treatment, average of three independent experiments. The protocol:
as §1, §2

Test [6] deals with Panc1005. Put plainly: MTT growth inhibition, pancreatic cancer cell line Panc1005. Format: cell-based. The settings on record: Homo sapiens, 96-hours treatment, average of three independent experiments. As to the method: as §1, §2
The subject of test [7] is Miapaca2. In words: MTT growth inhibition, pancreatic cancer cell line Miapaca2. Format: cell-based. The conditions noted are these: for IC50: Homo sapiens, MIA PaCa-2, MTT, 96-hours treatment, average of three independent experiments. As to the method:
as §1, §2

Test [8] relates to HS766. Put plainly: MTT growth inhibition, pancreatic cancer cell line HS766. Format: cell-based. The settings on record: Homo sapiens, Hs 766, 96-hours treatment, average of three independent experiments. As to the method:
as §1, §2

Test [9] deals with CWR22R. In words: MTT growth inhibition, prostate cancer cell line CWR22R. Format: cell-based, human. The settings on record: for IC50: Homo sapiens, 22Rv1, MTT, average of three independent experiments. The protocol:
(§3) This MTT assay was carried using human prostate cancer cell lines CWR22R, LAPC-4 and LnCap using Promega cell titer 96 nonradioactive cell proliferation kit. Cells were trypsinized and centrifuged at 1000 rpm for 5 minutes and the supernatant was aspirated. Cells were resuspended with HBSS to a concentration of […]. Cell suspension was diluted in serum containing medium to plate 2000 cells/well/0.2 ml. Cell suspension was transferred to sterile solution basin. Cells were plated using multichannel pipette set at 200 μl and incubated overnight for attachment. One plate was prepared for day 0 MTT assay as follows: 100 μl of media was removed from each well using multichannel pipette and 15 μl of MTT reagent was added. Plates were incubated at 37° C. for 4 hrs. 100 μl of STOP solution was added to each well and incubated at room temperature for 1 hour. Absorbance was measured at 570 and 650 nm on plate reader. All the media from the remaining plates were carefully removed and the cells were treated with the media containing drug. MTT assays were done on days 0, 3, 5 and 7. In the preliminary screening four BPU sulfur analogs 6l, 6h, 6n, 7d and 8h were screened and their activity was compared with compound 1.
(§4) Compounds with significant inhibitory activity in pancreatic cancer cells were further evaluated against prostate cancer cell lines in the MTT assay, (Mosmann, T., J. Immunol. Methods 65:55-63 (1983)) and the results were compared to those for compound 1 (Table 3).

In test [10] the test system is LnCaP. Put plainly: MTT growth inhibition, prostate cancer cell line LnCaP. Format: cell-based, human. The settings on record: for IC50: Homo sapiens, LNCaP, MTT, average of three independent experiments. The protocol: as §3, §4
The subject of test [11] is LAPC-4. In words: MTT growth inhibition, prostate cancer cell line LAPC-4. Format: cell-based, human. The conditions noted are these: for IC50: Homo sapiens, LAPC4, MTT, average of three independent experiments. As to the method: as §3, §4
In test [12] the test system is tubulin (colchicine binding site). In words: Inhibition of [3H]colchicine binding.
Test [13] concerns seven pancreatic cell lines. In words: MTT growth inhibition, panel of seven pancreatic cancer cell lines. In kind it is cell-based. The settings on record: for times more potent than compound 1, pancreatic cell lines: MTT, seven pancreatic cell lines. The protocol:
as §1, §2

Test [14] concerns prostate cancer cell lines CWR22R, LAPC-4 and LnCap. Put plainly: MTT growth inhibition, prostate cancer cell lines (panel). In kind it is cell-based, human. The conditions noted are these: preliminary screening. As to the method:
as §3, with “In the preliminary screening four BPU sulfur analogs 6l, 6h, 6n, 7d and 8h were screened and their activity was compared with compound 1.” left out
as §4

SMILES strings stand for the structures. Bounds are passed on as bounds.

In the case of `Cc1cc(NC(=O)NC(=O)c2ccccc2N(C)C)ccc1Oc1ncc(Br)cn1` [Compound 1], the “rate of apoptosis, MCF-7 cells” value came to 16.1% in test [1] (10 nM), 19.5% in test [1] (30 nM) and 27.7% in [1] (100 nM).

Consider `N=C(NC(=O)c1ccccc1)Oc1ccc(Sc2ncc(Br)cn2)cc1` [Compound 6g], for which the IC50 in [2] was greater than 10 µM; in test [3], greater than 10 µM; in [4], 7.5 µM; in test [5], 2 µM; in [6], greater than 10 µM; in test [7], 5 µM. The same compound registered an IC50 in test [8] of 5.5 µM.

Take `O=C(NC(=S)Nc1ccc(Sc2ncc(Br)cn2)cc1)c1ccccc1` [Compound 6h]: the concentration for half-maximal inhibition (IC50) was 10 µM in [2]; 9.5 µM in test [3]; greater than 10 µM in test [4]; 7.5 µM in test [5]; greater than 10 µM in test [6]; 10 µM in [7]. The IC50 in test [8] was 8.5 µM; in test [9], greater than 10 µM; in [10], greater than 10 µM; in test [11], 6 µM.

With `O=C(NC(=O)c1ccccc1[N+](=O)[O-])Nc1ccc(Sc2ncccn2)cc1` [Compound 6l], the results for the IC50 in test [9], in test [10] and in [11] were 5 µM, 0.5 µM and 0.6 µM, respectively.

On to `O=C(NC(=O)c1ccccc1[N+](=O)[O-])Nc1ccc(Oc2nccc(Br)n2)cc1` [Compound 6m], for which the “binding to the colchicine binding site (in words)” value in [12] is “poor binding affinity”.

In the case of `O=C(NC(=O)c1ccccc1[N+](=O)[O-])Nc1ccc(Sc2ncc(Br)cn2)cc1` [Compound 6n, 1-[4-(5-Bromopyrimidin-2-ylsulfanyl)phenyl]-3-(2-nitrobenzoyl)-urea], in test [3] (sulfide versus ether link), the “increase in potency of 6n over 6m, Panc1” value is recorded as 8 fold. The “increase in potency of 6n over 6m, Panc203” value in [4] (sulfide versus ether link) is 14 fold. For the same compound, in [7] (sulfide versus ether link), the “increase in potency of 6n over 6m, Mia-paca2” value was determined as 8 fold. Besides, the “increase in potency of 6n over 6m, CWR22R” value in test [9] (sulfide versus ether link) is listed as 100 fold. The “increase in potency of 6n over 6m, LnCap” value in test [10] (sulfide versus ether link) is recorded as 20 fold. The “killing of MCF-7 cells compared with 1 (in words)” value in test [1] is on record as “more potent than 1”. The “binding to the colchicine binding site (in words)” value in test [12] is given as “poor binding affinity”. Besides, the “times more potent than compound 1, pancreatic cell lines” value in test [13] was determined as 20 time. Also, the “times more potent than compound 1, prostate cancer cell lines” value in test [14] is recorded as 20 times.

In the case of `Nc1ccccc1C(=O)NC(=O)Nc1ccc(Sc2ncccn2)cc1` [Compound 7b], the IC50 is 6 µM in [2]; 7.5 µM in test [3]; 5.5 µM in test [4]; 6.5 µM in test [5]; greater than 10 µM in test [6]; 7 µM in test [7]. In test [8], this compound returned an IC50 of 8 µM.

With `Nc1ccccc1C(=O)NC(=O)Nc1ccc(Sc2ncc(Br)cn2)cc1` [Compound 7d, 1-(2-Aminobenzoyl)-3-[4-(5-bromopyrimidin-2-ylsulfanyl)phenyl]urea], the “increase in activity of 7d compared to 7c, Panc1” value in test [3] (sulfide versus ether link) was determined as 39 fold. Also, in test [4] (sulfide versus ether link), the “increase in activity of 7d compared to 7c, Panc203” value is recorded as greater than 117 fold. For the same compound, the “increase in activity of 7d compared to 7c, Panc430” value in test [5] (sulfide versus ether link) is greater than 50 fold. The “increase in activity of 7d compared to 7c, Miapaca2” value in [7] (sulfide versus ether link) was determined as 9 fold. The “increase in activity of 7d compared to 7c, LAPC-4” value in test [11] (sulfide versus ether link) is given as 7 fold. The “times more potent than compound 1, pancreatic cell lines” value in [13] stood at 20 time. Also, the “times more potent than compound 1, prostate cancer cell lines” value in [14] turned out to be 20 times.

As to `O=C(NC(=O)c1ccccc1[N+](=O)[O-])Nc1ccc([S+]([O-])c2ncc(Br)cn2)cc1` (stereo not shown) [Compound 8g, 1-[4-(5-Bromopyrimidine-2-sulfinyl)phenyl]-3-(2-nitrobenzoyl)-urea], the IC50 in test [2] was found to be 2.5 µM; in test [3], 6.5 µM; in test [4], 5.5 µM; in test [5], 5.5 µM; in test [6] it was 5.5 µM; in test [7] it was 8 µM. Further, the IC50 in [8] is 6.5 µM; in test [13] (Pancreatic cancer cell, all the cell lines of the panel), 2.5 to 8 µM.

These data come from patent US7595326B2, “Synthesis of novel tubulin polymerization inhibitors: benzoylphenylurea (BPU) sulfur analogs” (Champions Biotechnology, Inc., priority 2005, dated 2009).
